The text below walks through data of ChEMBL document CHEMBL3352676, “Terpenoids from the root bark of Pterolobium macropterum” (J Nat Prod, 2014).

The test system of one data set is KKU-M139. In words: Cytotoxicity against human KKU-M139 cells assessed as growth inhibition at > 200 uM after 72 hrs by sulforhodamine B assay. In general terms: The SRB assay estimates cell density from bound dye.
A short description of data set [1]: Cytotoxicity against human KKU-M213 cells assessed as growth inhibition after 72 hrs by sulforhodamine B assay. The following applies: KKU-M213, 72 h.
Another data set has as its system KKU-M156. The data set is described as follows: Cytotoxicity against human KKU-M156 cells assessed as growth inhibition at > 200 uM after 72 hrs by sulforhodamine B assay.
Data set [2] deals with Vero. In words: Cytotoxicity against african green monkey Vero cells assessed as growth inhibition at > 200 uM after 72 hrs by sulforhodamine B assay. The following applies: Chlorocebus sabaeus.
Data set [3] concerns Vero. In words: Cytotoxicity against african green monkey Vero cells assessed as growth inhibition after 72 hrs by sulforhodamine B assay. The following applies: Chlorocebus sabaeus.
A short description of data set [4]: Cytotoxicity against human KKU-M139 cells assessed as growth inhibition after 72 hrs by sulforhodamine B assay. As to conditions: KKU-M139, 72 h.
Data set [5] is described as follows: Cytotoxicity against human KKU-M156 cells assessed as growth inhibition after 72 hrs by sulforhodamine B assay. The following applies: KKU-M156, 72 h.
The test system of a further data set is KKU-M213. The data set is described as follows: Cytotoxicity against human KKU-M213 cells assessed as growth inhibition at > 200 uM after 72 hrs by sulforhodamine B assay.

Activity calls are given as the source filed them. The calls are words filed in the database; no cut-off is given here.

Regarding `CC1=C2CC3CC[C@@H](C)C2(CC1=O)C3(C)C` (stereo partly specified), the inhibition entry in the data set with KKU-M139 and in the data set with KKU-M156 was “inactive” in each case. Further, the half-inhibitory concentration (IC50) in data set [1] came out at 138 µM. The Activity entry in the data set with Vero [2] is reported as “Non-toxic”.

On to `COC(=O)C1(C(=O)OC)CCC[C@]2(C)c3cc4occc4c(C)c3CC[C@@H]12`, for which the IC50 with Vero [3] is 65.7 µM; in data set [1], 44.2 µM; in data set [4], 80.2 µM; in data set [5], 83.6 µM.

As for `COC(=O)[C@]1(C)CC[C@@H](OC(C)=O)[C@]2(C)c3cc4occc4c(C)c3C[C@@H](O)[C@H]21`, the results for the IC50 in data set [1], in data set [4] and in data set [5] were 98.2 µM, 155 µM and 115 µM, respectively. Besides, the Activity result in the data set on Vero [2] was “Non-toxic”.

With `CC(C)[C@]1(O)CC[C@@H](C)[C@@H]2CCC(=O)C=C21`, the figures for the concentration for half-maximal inhibition (IC50) (with Vero [3]; in data set [4]; in data set [5]) were 154 µM, 148 µM and 139 µM, respectively. Moreover, the inhibition result in the data set with KKU-M213 was “inactive”.

For `COC(=O)[C@]1(C)CCC[C@@]2(C)[C@H]1CC[C@H]1[C@@H](C)C3=CC(=O)OC3=C[C@@H]12`, the 50% inhibitory concentration (IC50) in the data set with Vero [3] came out at 94.4 µM; in data set [1], 47.6 µM. For the same compound, the inhibition entry with KKU-M139 and in the data set on KKU-M156 was “inactive” throughout.

Turning to `CC(C)[C@@H]1CC[C@@H](C)[C@@H]2CCC(=O)C=C12`, the concentration for half-maximal inhibition (IC50) is 154 µM in the data set with Vero [3], 87.3 µM in data set [1], 70.8 µM in data set [4] and 88.8 µM in data set [5].

`COC(=O)[C@]1(C)CCC[C@@]2(C)[C@H]1CC[C@H]1C(C)=CC(=O)C[C@@H]12`: the values for the IC50 (in the data set on Vero [3]; in data set [1]; in data set [4]) were 50.5 µM, 66.8 µM and 197 µM, respectively. In the data set on KKU-M156, the inhibition result is “inactive”.

In the case of `COC(=O)[C@]1(C)CCC[C@]2(C)c3cc4occc4c(C)c3C[C@@H](O)[C@@H]12`, the IC50 in data set [1] is 105 µM; in data set [4] it was 122 µM; in data set [5] it was 113 µM. In addition, the Activity result in the data set on Vero [2] was “Non-toxic”.

Regarding `COC(=O)[C@]1(C)CCC[C@@]2(C)[C@H]1CC[C@H]1[C@@H](C)C3=CC(=O)O[C@]3(O)C[C@@H]12`, the IC50 with Vero [3] came out at 59.2 µM; in data set [1] it was 44 µM; in data set [4], 76.3 µM; in data set [5], 61.2 µM.

For the compound `C[C@H]1C2=CC(=O)O[C@]2(O)C[C@H]2[C@H]1CC[C@@H]1[C@]2(C)CCC[C@@]1(C)C(=O)O` [DIPTERYXIC ACID], the IC50 in the data set with Vero [3] was determined as 97.1 µM; in data set [1], 68.9 µM; in data set [4] it was 77.3 µM; in data set [5], 82.9 µM.

As to `Cc1c2ccncc2c(C)c2c1[nH]c1ccccc12` [ELLIPTECINE], the IC50 with Vero [3] was determined as 15.5 µM; in data set [1] it was 6.58 µM; in data set [4], 18.3 µM; in data set [5], 37.9 µM.

With `COC(=O)[C@]1(C)CCC[C@]2(C)c3cc4occc4c(C)c3CC[C@@H]12`, the IC50 with Vero [3] was 57.6 µM; in data set [1], 144 µM; in data set [4], 70.6 µM; in data set [5] it was 80.1 µM.

As for `COC(=O)[C@]1(C)CCC[C@@]2(C)[C@H]1CC[C@H]1C(=O)c3ccoc3C[C@@H]12`, the IC50 in data set [1] is 34.8 µM; in data set [4], 23.2 µM; in data set [5], 148 µM. In the data set on Vero [2], the Activity entry was “Non-toxic”.

In the case of `CC(C)[C@@H]1CC[C@@H](C)[C@@H]2CCC(C=O)=C[C@@]12O`, the inhibition result in the data set on KKU-M139 and in the data set with KKU-M156 was “inactive” each time. Also, the IC50 in data set [1] was found to be 88.8 µM. In addition, the Activity result in the data set on Vero [2] is given as “Non-toxic”.

Usually IC50 stands for the midpoint of a concentration-inhibition curve.
